Article PMC4367188 (ACS Chemical Neuroscience, 2015)

How the values were obtained:
Test in all cases: Lead Profiling Screen radioligand binding
[1] = tested on: Glutamate, NMDA, Phancyclidine; settings: 10 μM ML352
[2] = target: Nicotinic Acetylcholine α1, Bungarotoxin (Homo sapiens, UniProt P02708+P07510+Q07001)
Adrenergic α1A = Adrenergic α1A (Rattus norvegicus, UniProt P43140)
[3] = target: Transporter, Norepinephrine (NET) (Homo sapiens, UniProt P23975)
Thyroid Hormone = settings: 10 μM ML352

Sequence of Transporter, Norepinephrine (NET) (P23975 whole entry): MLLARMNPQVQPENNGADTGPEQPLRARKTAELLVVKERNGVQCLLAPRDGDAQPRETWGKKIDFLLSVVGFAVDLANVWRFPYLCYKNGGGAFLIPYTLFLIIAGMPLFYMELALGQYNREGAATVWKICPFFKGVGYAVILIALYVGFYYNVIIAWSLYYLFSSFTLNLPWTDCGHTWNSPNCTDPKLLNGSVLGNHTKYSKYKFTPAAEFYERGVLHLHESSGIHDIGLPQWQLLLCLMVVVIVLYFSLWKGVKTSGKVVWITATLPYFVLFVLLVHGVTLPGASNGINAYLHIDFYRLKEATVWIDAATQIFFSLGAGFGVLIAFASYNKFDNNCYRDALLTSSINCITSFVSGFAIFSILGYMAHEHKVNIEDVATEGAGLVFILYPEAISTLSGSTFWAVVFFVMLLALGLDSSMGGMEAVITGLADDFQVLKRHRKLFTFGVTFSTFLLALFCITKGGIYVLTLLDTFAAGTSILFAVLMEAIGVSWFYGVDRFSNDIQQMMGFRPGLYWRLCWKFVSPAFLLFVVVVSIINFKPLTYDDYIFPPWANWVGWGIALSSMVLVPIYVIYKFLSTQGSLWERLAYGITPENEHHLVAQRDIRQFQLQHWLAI
Sequence of Nicotinic Acetylcholine α1, Bungarotoxin (P02708 21-457): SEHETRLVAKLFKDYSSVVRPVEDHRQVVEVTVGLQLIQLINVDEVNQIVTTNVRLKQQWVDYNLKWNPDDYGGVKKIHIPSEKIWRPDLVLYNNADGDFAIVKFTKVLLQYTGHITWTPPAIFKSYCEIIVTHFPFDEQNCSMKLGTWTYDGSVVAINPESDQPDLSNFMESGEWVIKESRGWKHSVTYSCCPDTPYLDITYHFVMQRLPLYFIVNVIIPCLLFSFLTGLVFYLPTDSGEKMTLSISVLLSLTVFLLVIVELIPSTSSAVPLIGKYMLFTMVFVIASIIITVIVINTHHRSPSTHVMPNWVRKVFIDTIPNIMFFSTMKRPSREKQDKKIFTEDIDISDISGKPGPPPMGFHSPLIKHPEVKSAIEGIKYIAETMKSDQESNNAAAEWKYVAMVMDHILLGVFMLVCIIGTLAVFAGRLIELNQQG
Sequence of Nicotinic Acetylcholine α1, Bungarotoxin (P11230 24-501 partner): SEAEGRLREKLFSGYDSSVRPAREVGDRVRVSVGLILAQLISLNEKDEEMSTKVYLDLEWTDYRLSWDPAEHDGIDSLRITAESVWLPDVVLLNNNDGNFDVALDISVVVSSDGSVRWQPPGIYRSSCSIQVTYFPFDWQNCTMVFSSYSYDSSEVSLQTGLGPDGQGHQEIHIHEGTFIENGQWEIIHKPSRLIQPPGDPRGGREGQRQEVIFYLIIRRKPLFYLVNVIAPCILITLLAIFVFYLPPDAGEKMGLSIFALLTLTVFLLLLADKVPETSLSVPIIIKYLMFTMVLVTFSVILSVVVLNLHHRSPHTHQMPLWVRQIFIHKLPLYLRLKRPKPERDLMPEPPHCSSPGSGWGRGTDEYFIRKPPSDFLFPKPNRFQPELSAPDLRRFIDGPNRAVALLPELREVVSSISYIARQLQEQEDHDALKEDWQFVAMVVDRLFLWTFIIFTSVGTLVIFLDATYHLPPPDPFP
Sequence of Nicotinic Acetylcholine α1, Bungarotoxin (Q07001 22-517): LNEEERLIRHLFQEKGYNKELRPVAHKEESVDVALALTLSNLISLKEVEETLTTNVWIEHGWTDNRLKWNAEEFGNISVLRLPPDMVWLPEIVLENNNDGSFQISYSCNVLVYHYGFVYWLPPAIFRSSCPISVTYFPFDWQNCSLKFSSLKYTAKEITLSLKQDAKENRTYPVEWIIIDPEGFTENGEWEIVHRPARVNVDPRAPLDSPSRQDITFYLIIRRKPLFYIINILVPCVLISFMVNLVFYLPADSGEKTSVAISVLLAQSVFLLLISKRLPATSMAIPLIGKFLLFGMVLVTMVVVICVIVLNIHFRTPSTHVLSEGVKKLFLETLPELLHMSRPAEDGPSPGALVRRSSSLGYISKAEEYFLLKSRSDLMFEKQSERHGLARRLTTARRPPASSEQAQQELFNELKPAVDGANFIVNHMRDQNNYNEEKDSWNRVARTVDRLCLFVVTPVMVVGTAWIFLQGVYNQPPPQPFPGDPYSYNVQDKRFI
Sequence of Nicotinic Acetylcholine α1, Bungarotoxin (P07510 23-517): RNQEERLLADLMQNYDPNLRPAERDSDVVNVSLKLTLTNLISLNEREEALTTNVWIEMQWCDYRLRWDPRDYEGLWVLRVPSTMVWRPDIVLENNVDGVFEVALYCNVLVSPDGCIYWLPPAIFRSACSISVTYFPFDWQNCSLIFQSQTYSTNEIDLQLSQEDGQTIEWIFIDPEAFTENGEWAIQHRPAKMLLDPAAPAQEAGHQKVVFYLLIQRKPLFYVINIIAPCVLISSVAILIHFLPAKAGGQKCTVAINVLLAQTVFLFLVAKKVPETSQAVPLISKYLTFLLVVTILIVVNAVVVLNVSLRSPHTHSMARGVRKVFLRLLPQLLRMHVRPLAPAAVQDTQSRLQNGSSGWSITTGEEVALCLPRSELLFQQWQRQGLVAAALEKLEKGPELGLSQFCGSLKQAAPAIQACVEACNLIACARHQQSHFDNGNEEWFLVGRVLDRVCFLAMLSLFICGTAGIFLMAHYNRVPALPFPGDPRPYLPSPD
Sequence of Adrenergic α1A (P43140 whole entry): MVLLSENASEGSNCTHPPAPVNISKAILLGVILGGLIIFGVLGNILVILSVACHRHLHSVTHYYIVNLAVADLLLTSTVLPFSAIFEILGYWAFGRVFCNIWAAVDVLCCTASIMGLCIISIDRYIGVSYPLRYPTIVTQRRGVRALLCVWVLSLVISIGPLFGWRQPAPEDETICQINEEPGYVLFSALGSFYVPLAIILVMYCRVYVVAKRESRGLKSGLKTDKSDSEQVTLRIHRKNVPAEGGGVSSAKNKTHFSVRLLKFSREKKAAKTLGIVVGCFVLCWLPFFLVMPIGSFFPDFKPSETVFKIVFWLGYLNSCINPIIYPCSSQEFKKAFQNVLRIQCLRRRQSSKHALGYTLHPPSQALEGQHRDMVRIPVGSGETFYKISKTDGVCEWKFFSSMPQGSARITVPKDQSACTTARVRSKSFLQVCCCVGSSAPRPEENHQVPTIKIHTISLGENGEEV

## COc1ccc(C(=O)NCc2cc(C(C)C)no2)cc1OC1CCN(C)CC1 [ML352, N-((3-isopropylisoxazol-5-yl)methyl)-4-methoxy-3-((1-methylpiperidin-4-yl)oxy)benzamide]
[1]
  % inhibition: –5%
[2]
  inhibition at 10 µM: 7%
Adrenergic α1A
  inhibition at 10 µM: 23%
[3]
  inhibition at 10 µM: 12%
Thyroid Hormone
  % inhibition: 6%
